In patent US9969771B2, “Tetrapeptide having effect of inhibiting VEGF-induced angiogenesis and use thereof” (AVIXGEN INC., priority 2015, dated 2018):
Entries after “also recorded” stand apart in the source; their conditions may differ. Where a SMILES comes first, the peptide text is derived from it.

How the values were obtained:
HUVECs [1] = experiment: HUVEC migration, transwell (Boyden chamber) assay; type: cell-based, human
Procedure: HUVEC migration was analyzed using a transwell plate equipped with a 6.5-mm-diameter polycarbonate filter (8-μm pore size). A lower surface of the filter was coated with 10 μg of gelatin. […] Following incubation with various concentrations of tetrapeptides at room temperature for 30 minutes, HUVECs (1×10^6 cells/100 μl) were placed in upper wells. The cells were incubated at 37° C. in a constant temperature and humidity chamber for 4 hours. The migrated cells were stained with hematoxylin and eosin, and quantified under an optical microscope.

HUVECs [2] = experiment: HUVEC tube formation on Matrigel; type: cell-based, human
Procedure: Tube formation of HUVECs was examined using growth factor-reduced Matrigel (hereinafter, referred to as “Matrigel”). 250 μl of Matrigel (10 mg protein/ml) was placed in a 24-well plate to allow polymerization for 30 minutes at 37° C. […] The tube formation was examined under a reverse phase-contrast microscope, and visualized with Image-Pro Plus version 4.5 (Media Cybernetics, San Diego, Calif.). Five samples were randomly selected to measure and quantify a length of the tube formed above.

ERK = experiment: Western blot, ERK phosphorylation in HUVECs; type: cell-based, human
Procedure: (§1) Cells were lyzed in RIPA buffer, and 50 μg of proteins were isolated by SDS-PAGE and then transferred to a PVDF membrane. The membrane was reacted with an antibody with respect to a target protein for 2 hours. The membrane was washed twice and reacted with a horseradish peroxidase-conjugated antibody, and then an amount of the target proteins was assessed with an enhanced chemiluminescence system.

NO production in HUVECs = NO production in HUVECs (DAF-FM diacetate); type: cell-based, human; details: peptide 0.15 nM, VEGF 10 ng/ml
Procedure: An NO amount produced in HUVECs was evaluated with DAF-FM diacetate. HUVECs were reacted with peptides (0.15 nM) and VEGF (10 ng/ml) for 4 hours, and incubated with DAF-FM diacetate (5 μM) in a CO2 constant temperature incubator, and the amount of NO produced in the cells was measured under a confocal microscope.

zebrafish = experiment: Zebrafish angiogenesis assay; type: in vivo; details: zebrafish embryo
Procedure: An adult zebrafish and an embryo were grown and maintained in a standard laboratory environment, and a zebrafish experiment was conducted according to the protocols approved by the animal ethics committee of Chungnam National University. To analyze angiogenesis, at 48 hours post fertilization (hpf), the embryo was anesthetized with tricaine (MS-222, 0.02%, embryo buffer), a peptide was administered, and FITC-dextran (2,000 kDa, Sigma) was further injected. A blood vessel image was obtained with a Leica DM5000B system at 72 hpf. As a probe for whole mount in situ hybridization, digoxigenin (DIG)-labeled RNA prepared by a cad5 (NM_001003983) gene was used. Meanwhile, a peptide was injected into the 18-hpf embryo collected at 25 hpf, fixed with 4% paraformaldehyde, washed with PBS (in 0.1% Tween20), and hybridized with DIG-labeled riboprobes (hybridization buffer). Subsequently, the resulting product was reacted with an alkaline phosphatase (AP)-conjugated anti-DIG antibody. Following reaction with an AP staining solution, a staining status was observed and visualized under a microscope (Leica, MZ-16).

[3] = tested on: chick chorioallantoic membrane (CAM); experiment: Chick chorioallantoic membrane (CAM) analysis; type: in vivo; details: RLYE 0.75 nM, VEGF 50 ng/ml
Procedure: For a chick chorioallantoic membrane (CAM) analysis, fertilized eggs were incubated for 3 days, and a window was made in the same manner as used in the previous research (18). The window (with a diameter of about 3 cm) was made by removing a shell and an inner layer of the shell, and the exposed part was sealed with cellophane tape. The eggs were stood upright at 37° C. in an incubator (with a humidity of 55 to 60%) and were incubated for 3 days. A Thermanox disc containing 10 μl of a salt-free solution containing RLYE (SEQ ID NO: 2) (0.75 nM) alone or in combination with VEGF (50 ng/ml) was gently placed on a CAM that had been incubated for 10 days. After 72-hour incubation, blood vessels formed above were stained by injecting 1 ml of a 10% intralipose (fat emulsion) solution right under the CAM. The stained blood vessels were photographed using a Nikon digital camera, and the number of blood vessels newly formed around the disc was counted.

FAK = experiment: Western blot, FAK phosphorylation in VEGF-A-stimulated HUVECs; type: cell-based, human; details: HUVECs stimulated with VEGF-A
Procedure: as §1

Akt = experiment: Western blot, Akt phosphorylation in VEGF-A-stimulated HUVECs; type: cell-based, human; details: HUVECs stimulated with VEGF-A
Procedure: as §1

HUVECs [4] = experiment: Confocal microscopy of FITC-RLYE binding to HUVECs; set-up: species or system human
Procedure: HUVECs were incubated on a cover glass coated with 2% gelatin, and then incubated with FITC-RLYE (SEQ ID NO: 2) (100 ng/ml) after being treated with VEGF-A (10 ng/ml) for 30 minutes or not treated. The cells were fixed in 3.7% formaldehyde for 30 minutes, treated with 0.2% TritonX-100-containing PBS, and reacted with a 3% goat serum and 0.05% Tween-20-containing PBS blocking solution. The cells were reacted with a PECAM-1 antibody at room temperature for 2 hours, washed with PBS, and reacted with a TRITC-conjugated secondary antibody at room temperature for 90 minutes. Samples were observed under a confocal microscope.

[5] = tested on: B16F1 mouse melanoma cells; experiment: Mouse melanoma (B16F1) animal model; type: in vivo, C57BL/6J mouse; details: 1 mg/kg per day peritoneally
Procedure: 100 μl each of 2×10^6 B16F1 mouse melanoma cells and 1×10^7 HCT116 human colorectal tumor cells were subcutaneously injected into the left side of a C57BL/6J mouse and a nude mouse. After a tumor volume reached at least 50 to 70 mm3 (taking about 7 days), saline or RLYE (SEQ ID NO: 2) (0.5 or 1.0 mg/kg) was peritoneally injected daily into the mice. A tumor size was two-dimensionally measured with calipers. A tumor volume (mm3) was calculated by a formula of […]. Following homogenization of tumor tissue with PBS and centrifugation (at 12,000×g for 5 min), a hemoglobin-containing supernatant was extracted to be used in analysis with Drabkin's reagent (Sigma). A hemoglobin level was measured by a cyanmethemoglobin method, and the amount of hemoglobin per gram of the tumor was calculated.

SMILES: CC(C)C[C@H](NC(=O)[C@@H](N)CCCNC(=N)N)C(=O)N[C@@H](Cc1ccc(O)cc1)C(=O)N[C@@H](CCC(=O)O)C(=O)O [RLYE] (H-RLYE-OH; N-terminus and C-terminus assumed)
- EGF-induced migration of HUVECs (HUVECs [1]; EGF stimulated): does not affect
- P1GF-induced HUVEC migration (HUVECs [1]; P1GF (ligand of VEGFR-1)): does not inhibit
- inhibition of VEGF-induced HUVEC migration (HUVECs [1]; VEGF / VEGF-A stimulated): effectively inhibited; also recorded: certainly inhibits; also recorded: concentration-dependently inhibited
- VEGF-B-induced HUVEC migration (HUVECs [1]; VEGF-B (ligand of VEGFR-1)): does not inhibit
- bFGF-induced migration of HUVECs (HUVECs [1]; bFGF stimulated): did not inhibit
- inhibition of VEGF-induced tube formation (HUVECs [2]; HUVECs, peptide 0.15 nM, VEGF 10 ng/ml): effectively regulated; also recorded: much higher inhibitory effect on the tube formation than KLYD; also recorded: effectively inhibited
- bFGF-induced tube formation of HUVECs (HUVECs [2]; bFGF stimulated): did not inhibit
- P1GF-induced ERK phosphorylation (ERK; P1GF (ligand of VEGFR-1)): did not inhibit
- inhibition of VEGF-induced ERK phosphorylation (ERK; VEGF / VEGF-A stimulated): inhibited; also recorded: more effectively inhibited; also recorded: highest inhibitory effect
- VEGF-B-induced ERK phosphorylation (ERK; VEGF-B (ligand of VEGFR-1)): did not inhibit
- inhibition of VEGF-induced NO production (NO production in HUVECs): effectively blocked; also recorded: effectively inhibited; also recorded: higher inhibitory effect than the control KLYD
- formation of intersegmental vessels (ISV) (zebrafish): obviously inhibited
- formation of subintestinal vessels (SIV) (zebrafish): considerably inhibited
- VEGF-A-induced blood vessel density in CAM [3]: considerable reduction
- phosphorylation of FAK (FAK): inhibited
- phosphorylation of Akt (Akt): inhibited
- binding to HUVEC surface (confocal microscope) (HUVECs [4]; pretreatment of VEGF-A): effectively blocked
- binding to HUVEC surface (confocal microscope) (HUVECs [4]; without VEGF-A pretreatment): binds to a HUVEC surface
- tumor growth [5]: significantly decreased
- tumor size [5]: significantly decreased
- tumor weight [5]: significantly decreased
